The text below walks through data of US4818772A, “Derivatives of 4-aminoethoxy-5-isopropyl-2-methylbenzenes: methods of synthesis and utilization as medicines” (Societe Cortial S.A., priority 1981, dated 1989).

As usually defined, the LD50 is the dose at which mortality reaches 50%. What is called mortality is the percentage killed.

Counter-ions that a name gives are not always drawn. Like-named read-outs stand apart in the source and are kept apart here.

One series is described as follows: in vivo. The conditions noted are these: mouse; for mortality: oral, Swiss mice, solvent varies by compound, read-out: Percentage mortality. How it is done:
The toxicity of the compounds described in the present invention was determined by performing tests with Swiss mice. The animals, free of specific pathogenic organisms, are kept in an air-conditioned room for 24 to 48 hours before the beginning of the experiment. The animals are divided into groups consisting of 5 males and 5 females. The substances are administered with the appropriate carrier in a volume corresponding to 0.1 ml per 10 g of animal weight.
The following tables display the LD 50 determined for each compound, for oral and intraperitoneal administration, by utilizing the method described by J. C. Cazin (Bull. Soc. Pharm. Lille, 1972, 4, 187). In case the LD 50 could not be measured, the mortality percentages produced by various doses are reported.

Series [1] deals with aortic strips isolated from rabbits (contractions induced by noradrenaline). In words: In vitro alpha-blocking activity: antagonism of noradrenaline-induced contractions of aortic strips. Type of series: cell-based. The note with it: Oryctolagus cuniculus, read-out: CI 50 (50% inhibition of standard contraction induced by noradrenaline), noradrenaline 2×10^-6 M/l. How it is done: In vitro alpha-blocking activity is determined by the antagonism of contractions of aortic strips isolated from rabbits. The contractions are induced by noradrenaline at a concentration of 2×10^-6 M/l. The technique utilized is derived from that of Furchgott and Bhadrakom (J. Pharmacol., 1953, 108, 129-43). The agonist is introduced in the bath 30 seconds or 14 minutes after the addition of the antagonist.

For series [2], the system named is hypertension induced by phenylephrine. In words: In vivo alpha-blocking activity: antagonism of hypertension induced by phenylephrine, intravenous, amyelic rats. The note with it: for inhibition in vivo at 1.6 mg/kg / inhibition in vivo at 3.2 mg/kg / inhibition in vivo at 0.2 mg/kg: Rattus norvegicus, iv, read-out: % of maximum activity (percentage inhibition); for time for the residual activity to become 50% of the maximum activity: i.v. How it is done: (§1) The in vivo alpha-blocking activity is estimated by the measurement of the antagonism of hypertension induced by phenylephrine. For intravenous administration, amyelic rats with both vagus nerves removed according to the technique of J. S. Gillespie and T. C. Muir (Br. J. Pharmac. Chemother., 1967, 30, 78-87) are used. The alpha-blocking agents are administered at doses of 0.2, 1.6 and 3.2 mg/kg.

Another series has as its system unwashed human platelets. Briefly: Prevention of the aggregation of human platelets (plasma rich in platelets). Type of series: cell-based. The note with it: Platelet. As to the method:
The studies were carried out with platelets in their natural surroundings (plasma rich in platelets). The inhibiting agent was tested in the presence of four types of aggregating agents (ADP, adrenalin, collagen, arachidonic acid) at various concentrations.
For each case, a dose-response curve was established.

Series [3] deals with hypertension induced by phenylephrine. In words: In vivo alpha-blocking activity: antagonism of hypertension induced by phenylephrine, oral, awake male rats. The conditions noted are these: 5 mg/kg. How it is done: as §1
(§2) For oral administration, male rats kept awake and fitted with catheters implanted in the carotid artery and in the jugular vein are used. Compound COR 28 11 results in a maximum activity of 56.7±10.25% at a dose of 5 mg/kg. After 60 minutes, the activity is still 30%. The antihypertensive activity is determined on rats of Okamoto stock that are spontaneously hypertensive and anesthesized with pentobarbital. A dose of 0.1 mg/kg of compound COR 28 11 administered intravenously causes the average blood pressure to go from 135 to 106 mm of mercury.

Series [4] relates to rats of Okamoto stock that are spontaneously hypertensive. Briefly: Antihypertensive activity in spontaneously hypertensive rats. Type of series: in vivo. The conditions noted are these: i.v., 0.1 mg/kg; from 135 mm of mercury; anesthetized with pentobarbital. As to the method: as §2
The mark [5] stands for this setting: agonist 30 seconds after antagonist (not flagged with *).
Setting [6] is: read-out: I 50 (50% inhibition of platelet aggregation), ADP 1.25μM/l.
The mark [7] stands for this setting: read-out: I 50 (50% inhibition of platelet aggregation), ADP 2.5μM/l.
The mark [8] stands for this setting: read-out: I 50 (50% inhibition of platelet aggregation), adrenalin 1μM/l.
[9] abbreviates: read-out: I 50 (50% inhibition of platelet aggregation), adrenalin 5μM/l.
Where [10] appears, read: read-out: I 50 (50% inhibition of platelet aggregation), arachidonic acid 5·10^-4 M/l.
Where [11] appears, read: read-out: I 50 (50% inhibition of platelet aggregation), arachidonic acid 10^-3 M/l.
Where [12] appears, read: read-out: I 50 (50% inhibition of platelet aggregation), collagen 50μg/ml.

Turning to `CC(=O)Oc1cc(C(C)C)c(OCCN(C)C)cc1C` [Moxisylyte, reference compound], the 50% lethal dose (LD50) came out at 73 mg/kg in “in vivo” (ip) and 225 mg/kg in the series “in vivo” (po). The IC50 in series [1] (setting [5]) was 17 µM. The inhibition in vivo at 1.6 mg/kg in series [2] (1.6 mg/kg) is 83.1 ± 5.71%. The inhibition in vivo at 3.2 mg/kg in series [2] (3.2 mg/kg) was 82.6 ± 4.54%.

Turning to `COc1cccc(OC)c1OCCNCCOc1cc(C)c(O)cc1C(C)C` [COR 28 25, hydrochloride of 4-[N-(2,6-dimethoxyphenoxyethyl)aminoethoxy]-5-isopropyl-2-methylphenol], in series [2] (0.2 mg/kg), the inhibition in vivo at 0.2 mg/kg stood at 70.2 ± 4.89% and the “time for the residual activity to become 50% of the maximum activity” value worked out at 20 min. Also, in series [2] (1.6 mg/kg), the inhibition in vivo at 1.6 mg/kg is 94.8 ± 2.22%. Further, in series [2] (1.6 mg/kg, given in m and s), the “time for the residual activity to become 50% of the maximum activity” value worked out at 120 min.

Turning to `Cc1cc(OCCNCC2COc3ccccc3O2)c(C(C)C)cc1O` (centres unmarked) [drawing 29], the IC50 in the series on unwashed human platelets (setting [6]) amounted to 60 µM; with unwashed human platelets (setting [7]), 58 µM; in the series on unwashed human platelets (setting [8]) it was 24 µM; in the series with unwashed human platelets (setting [9]), 50 µM; with unwashed human platelets (setting [10]), 15 µM; in the series with unwashed human platelets (setting [11]), 54 µM. Also, the IC50 with unwashed human platelets (setting [12]) is 52 µM.

As to `COc1cccc(OC)c1OCCN(C)CCOc1cc(C)c(O)cc1C(C)C` [COR 28 22, hydrochloride of 4-[N-(2,6-dimethoxyphenoxyethyl)-N-methylaminoethoxy]-5-isopropyl-2-methylphenol], the 50% lethal dose (LD50) in the series “in vivo” (ip) is 66.2 mg/kg; in the series “in vivo” (po), 316 mg/kg. Also, the IC50 in series [1] (setting [5]) turned out to be 0.178 µM. For the same molecule, the inhibition in vivo at 0.2 mg/kg in series [2] (0.2 mg/kg) worked out at 91.1 ± 3.46%. Moreover, the inhibition in vivo at 1.6 mg/kg in series [2] (1.6 mg/kg) amounted to 112 ± 7.3%. Moreover, the “time for the residual activity to become 50% of the maximum activity” value in series [2] (0.2 mg/kg) is 35 min; in series [2] (1.6 mg/kg, given in m and s), 120 min.

`Cc1cc(OCCNCC2COc3ccccc3O2)c(C(C)C)cc1O` (centres unmarked) [COR 28 14, hydrochloride of N-[(4-hydroxy-2-isopropyl-5-methyl)phenoxyethyl]-[2-(1,4-benzodioxane)]methylamine]: the LD50 came to 174 mg/kg in the series “in vivo” (ip) and 952 mg/kg in “in vivo” (po). In addition, the IC50 in series [1] (setting [5]) worked out at 6 µM. Further, in series [2] (1.6 mg/kg), the inhibition in vivo at 1.6 mg/kg came to 92 ± 2.45%. The inhibition in vivo at 3.2 mg/kg in series [2] (3.2 mg/kg) was found to be 100%. In series [2] (3.2 mg/kg, given in m and s), the “time for the residual activity to become 50% of the maximum activity” value is greater than 60 min.

In the case of `COc1cc(C(C)C)c(OCCNCCOc2ccccc2)cc1C` [COR 28 10, hydrochloride of N-phenoxyethyl-2-[(2-iso-propyl-4-methoxy-5-methyl)phenoxy]ethylamine], in the series “in vivo” (ip), the LD50 stood at 81 mg/kg. Besides, the mortality in “in vivo” (1000 mg/kg) stood at 20%. For the same molecule, the IC50 in series [1] (setting [5]) is 350 µM. The inhibition in vivo at 1.6 mg/kg in series [2] (1.6 mg/kg) was 66.3 ± 1.83%. The inhibition in vivo at 3.2 mg/kg in series [2] (3.2 mg/kg) turned out to be 77%.

Consider `COc1cc(C(C)C)c(OCCN(C)CCOc2c(OC)cccc2OC)cc1C` [drawing 28], for which the IC50 with unwashed human platelets (setting [6]) is 70 µM; in the series with unwashed human platelets (setting [7]), 74 µM; in the series with unwashed human platelets (setting [8]), 16 µM; in the series with unwashed human platelets (setting [9]), 40 µM; with unwashed human platelets (setting [10]), greater than 100 µM; in the series with unwashed human platelets (setting [11]) it was greater than 100 µM. Besides, in the series with unwashed human platelets (setting [12]), the IC50 came out at 100 µM.

Regarding `Cc1cc(OCCNCCCc2ccccc2)c(C(C)C)cc1O` [COR 28 21, hydrochloride of 5-isopropyl-2-methyl-4-[N-(3-phenylpropyl)aminoethoxy]phenol], the LD50 in “in vivo” (ip) is 84.6 mg/kg; in “in vivo” (po), 359 mg/kg. For the same molecule, in series [1] (setting [5]), the IC50 was found to be 11.7 µM. Further, the inhibition in vivo at 1.6 mg/kg in series [2] (1.6 mg/kg) worked out at 73.4 ± 6.99%. Also, in series [2] (1.6 mg/kg, given in m and s), the “time for the residual activity to become 50% of the maximum activity” value was 50 min.

`CC(=O)Oc1cc(C(C)C)c(OCCN(C)CC2COc3ccccc3O2)cc1C` (centres unmarked) [COR 28 13, hydrochloride of N-[(4-acetoxy-2-isopropyl-5-methyl)phenoxyethyl]-N-methyl-[2-(1,4-benzodioxane)]methylamine]: in the series “in vivo” (ip), the median lethal dose (LD50) stood at 600 mg/kg. The mortality in the series “in vivo” (1000 mg/kg) was 0%; in the series “in vivo” (2000 mg/kg), 20%. Moreover, in series [1] (setting [5]), the IC50 worked out at 252 µM. Moreover, the inhibition in vivo at 1.6 mg/kg in series [2] (1.6 mg/kg) came out at 46.1 ± 6.01%. In addition, the inhibition in vivo at 3.2 mg/kg in series [2] (3.2 mg/kg) is 61.1 ± 6.4%.

As to `Cc1cc(OCCN(C)CCCc2ccccc2)c(C(C)C)cc1O` [COR 28 23, hydrochloride of 5-isopropyl-2-methyl-4-[N-methyl-N-(3-phenylpropyl)aminoethoxy]phenol], the 50% lethal dose (LD50) came out at 154 mg/kg in the series “in vivo” (ip) and 615 mg/kg in the series “in vivo” (po). Besides, in series [1] (setting [5]), the IC50 stood at 2.7 µM. Moreover, the inhibition in vivo at 1.6 mg/kg in series [2] (1.6 mg/kg) was found to be 81.1 ± 2.35%. Moreover, the “time for the residual activity to become 50% of the maximum activity” value in series [2] (1.6 mg/kg, given in m and s) is 20 min.

With `COc1cc(C(C)C)c(OCCN(C)CCOc2ccccc2)cc1C` [COR 28 09, hydrochloride of N-methyl-N-phenoxyethyl-2-[(2-isopropyl-4-methoxy-5-methyl)phenoxy]ethylamine], the LD50 in the series “in vivo” (ip) worked out at 200 mg/kg. For the same molecule, the mortality in the series “in vivo” (1000 mg/kg) was determined as 0%. The IC50 in series [1] (setting [5]) was determined as 260 µM. In addition, the inhibition in vivo at 1.6 mg/kg in series [2] (1.6 mg/kg) stood at 51.4 ± 5.1%. Moreover, in series [2] (3.2 mg/kg), the inhibition in vivo at 3.2 mg/kg came to 74.7 ± 5.2%.

Regarding `Cc1cc(OCCN(C)CC2COc3ccccc3O2)c(C(C)C)cc1O` (centres unmarked) [COR 28 12, hydrochloride of N-[(4-hydroxy-2-isopropyl-5-methyl)phenoxyethyl]-N-methyl-[2-(1,4-benzodioxane)]methylamine], the figures for the LD50 in the series “in vivo” (ip) and in “in vivo” (po) were 350 mg/kg and 1430 mg/kg, respectively. For the same molecule, the IC50 in series [1] (setting [5]) was 90 µM. Also, the inhibition in vivo at 1.6 mg/kg in series [2] (1.6 mg/kg) came out at 59.1 ± 7.5%. For the same molecule, the inhibition in vivo at 3.2 mg/kg in series [2] (3.2 mg/kg) came out at 65.7 ± 4.5%.

In the case of `COc1cc(C(C)C)c(OCCN(C)CCOc2c(OC)cccc2OC)cc1C` [COR 28 11, hydrochloride of N-(2,6-dimethoxyphenoxyethyl)-N-methyl-2-[(2-isopropyl-4-methoxy-5-methyl)phenoxy]ethylamine], the maximum activity in series [3] was 56.7±10.25%. In series [3] (after 60 minutes), the “activity after 60 minutes” value is 30%. In addition, the LD50 was 93 mg/kg in “in vivo” (ip) and 546 mg/kg in the series “in vivo” (po). Moreover, the “average blood pressure after administration” value in series [4] is reported as 106 mm of mercury. In series [1] (14 min, contact time 14 min), the IC50 came to 21.6 µM. Also, the inhibition in vivo at 1.6 mg/kg in series [2] (1.6 mg/kg) was determined as 61.8 ± 4.9%. Also, the inhibition in vivo at 3.2 mg/kg in series [2] (3.2 mg/kg) turned out to be 74.6 ± 4.4%. Also, the “time for the residual activity to become 50% of the maximum activity” value in series [2] (1.6 mg/kg, given in m and s) was greater than 60 min; in series [2] (3.2 mg/kg, given in m and s) it was 60 min.
